Laboratory results from US20230212123A1, “Pyridine Inhibitors of Glucosylceramide Synthase and Therapeutic Methods Using the Same” (THE REGENTS OF THE UNIVERSITY OF MICHIGAN, priority 2020, published 2023).

Assays:
[1] = biological target: T1, glucosylceramide synthase (GCS) (Canis lupus familiaris, UniProt A0A8I3MXG6); test: GCS inhibition in MDCK cell homogenates (Lysate IC50); assay type: biochemical, canine; conditions: MDCK cell homogenate
T1 construct: endogenous in cells; host or cells: MDCK cell homogenate
T1 sequence (A0A8I3MXG6 1-394): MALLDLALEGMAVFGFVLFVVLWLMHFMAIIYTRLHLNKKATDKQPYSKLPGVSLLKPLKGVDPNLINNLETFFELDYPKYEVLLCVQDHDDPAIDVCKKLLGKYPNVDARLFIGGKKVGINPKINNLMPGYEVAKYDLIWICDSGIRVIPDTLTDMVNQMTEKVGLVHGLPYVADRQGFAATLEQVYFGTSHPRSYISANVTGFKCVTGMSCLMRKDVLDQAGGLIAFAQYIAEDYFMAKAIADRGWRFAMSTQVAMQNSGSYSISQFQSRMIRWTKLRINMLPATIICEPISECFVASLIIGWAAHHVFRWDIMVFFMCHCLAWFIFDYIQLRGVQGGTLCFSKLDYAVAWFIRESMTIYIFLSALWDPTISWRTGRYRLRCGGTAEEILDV
Protocol: GCS Inhibition in MDCK Cell Homogenates (Lysate IC50, Table 1)
IC50 values for new compounds of the invention were determined as reported in Shayman J. A., Abe A. 2000. Glucosylceramide synthase: assay and properties. Methods Enzymol.311: 42-49.

GCS in MDCKII cells = biological target: T2, GCS in MDCKII cells (Canis lupus familiaris, UniProt A0A8I3MXG6); test: GCS inhibition in MDCKII cells (glucosylceramide content after 24 h); assay type: cell-based, canine
T2 construct: whole cellular lipids of wild type MDCKII cells were extracted; endogenous in cells; host or cells: wild type MDCKII cells
T2 sequence (A0A8I3MXG6 1-394): T1 sequence (A0A8I3MXG6 1-394)
Protocol: GCS Inhibition in MDCKII Cells (MDCKII IC50, Table 1)
MDCKII cells were routinely maintained in medium consisting of Opti-MEM/F12 (1:1), 5% FBS, 100 U/mL of penicillin, 100 µg/mL streptomycin and 200 mM L-glutamine. MDCKII cells were newly thawed from frozen ampules every two months.
Stock solutions of water-insoluble glycosphingolipid inhibitors (100 mM) were prepared by dissolving each inhibitor into 100% ethanol as previously described (3). The inhibitor-ethanol solutions then were diluted 50X into 2 mM delipidated bovine serum albumin-phosphate buffered saline solution to make water-soluble glycosphingolipid inhibitor-bovine serum albumin complexes. The inhibitor-bovine serum album complexes were sterile-filtered and stored at -20° C. Prior to use, portions of the inhibitor-bovine serum albumin complexes were further diluted with Opti-F12 to make treatment solutions. Equal amounts of bovine serum albumin and ethanol were added into the control cultures. Cells (5 x 10^5) were seeded into 10-cm culture dishes containing 10 ml of Opti-F12 with 5% FBS. After 24 hours, the medium was replaced with fresh serum-free Opti-F12 medium, and cells were exposed to candidate GCS inhibitors at concentrations of 0, 1, 3, 10, 30, 100 and 300 nM for 24 hours.
Following inhibitor treatment, whole cellular lipids of wild type MDCKII cells were extracted as previously described in detail (10). Briefly, cells were washed with ice-cold phosphate buffered saline, fixed by methanol, and collected with rubber scraper. Chloroform was then added to yield a theoretical ratio of chloroform:methanol:water at 1:2:0.8 (v/v/v) to form a mono-phase. Cell debris and proteins were removed by centrifugation at 2200 x g for 30 min. The supernatants were portioned by adding chloroform and 0.9% NaCl. The lower organic phases containing neutral glycosphingolipids lipids were washed with methanol and 0.9% NaCl, and subjected to base- and acid-hydrolysis (10). A portion of purified glycosphingolipids normalized to 100 nmol of total phospholipids was analyzed by high performance thin layer chromatography. The thin layer chromatography separations were processed twice. The plate pretreated with 1% sodium borate was first developed in a solvent system consisting of chloroform/methanol (98/2, v/v). After air drying, the plate was then developed in a solvent system containing chloroform/methanol/water (70/30/4, v/v/v). The levels of glucosylceramide were detected by charring with 8% cupric sulfate in 8% phosphoric acid, and quantified by densitometric scanning using ImageJ, NIH Image. Image data was analyzed, and the IC50 of each inhibitor was calculated using GraphPad Prism (version 5.03).

[2] = Pharmacokinetics in mice: plasma and brain drug AUC; assay type: in vivo; conditions: over 7 hrs following single IP injection at 10 mg/kg; for Kp / AUC: mouse; for Kp: brain/plasma; for AUC: plasma
[3] = tested on: glucosylceramide (GlcCer) in brain and liver; test: Reduction of brain and liver glucosylceramide in CBE mice; assay type: in vivo; conditions: 14 days, D409V/null mice with CBE 25 mg/kg/day ip
Protocol: The in vivo assay measured the reduction in brain and liver glucosylceramide and glucosylsphingosine levels in mice on a D409V background concurrently treated with conduritol B epoxide (CBE), an irreversible inhibitor of GBA (beta-glucocerebrosidase).
Reduction of Brain and Liver Glucosylceramide and Glucosylsphingosine in CBE Mice
The reduction by inhibitors of GCS in brain glucosylceramide and glucosylsphingosine content was determined by the use of mice with Gba 1 mutant alleles, termed D409V/null. These are knock-in mice with a Gba 1 point mutation encoding Valine (V) 409 for the wild type (WT) Aspartate (D) on one missense allele and a null heteroallele [D409V/null (9V/null)]. The D409V/null and WT littermates were of mixed gender and mixed, but matched, genetic backgrounds of C57BL/129Sv/FVB. […] Mice were concurrently treated with GCS inhibitor or vehicle control for 14 days. The mice were sacrificed 2 hours following the last injection and tissues including brain, liver, spleen, kidney and lung were analyzed for glucosylceramide and glucosylsphingosine by mass spectrometry.
Mouse Tissue Lipid Analysis
Lipid extractions of liver, kidney, and brain were performed as previously described (7). Briefly, frozen liver (about 0.5 g), two kidneys (about 0.3 g) and whole brain (about 0.4 g) were individually homogenized in sucrose buffer (250 mM sucrose, pH 7.4, 10 mM HEPES and 1 mM EDTA), at 0.2 g tissue/1 mL of sucrose buffer, with a Tri-R homogenizer. Each 0.8 mL of homogenate was mixed with 2 mL of methanol and 1 mL of chloroform, bath sonicated for 1 min and incubated at room temperature for 1 h. Tissue debris were removed by centrifugation at 2.400 x gravity for 30 min. The pellets were reextracted by mixing with 1 mL of methanol, 0.5 mL of chloroform and 0.4 mL of 0.9% NaCl (chloroform/methanol/0.9% NaCl, 1:2:0.8), incubated at room temperature for 1 h and centrifuged at 2.400 x gravity for another 30 min. Two extracts were combined and mixed with 4.5 mL of chloroform and 1.2 mL of 0.9% NaCl (chloroform/methanol/0.9% NaCl, 2:1:0.8). After centrifugation at 800 x gravity for 5 min, lower layer was washed with 3 mL of methanol and 2.4 mL of 0.9% NaCl. Second washing was carried with 3 mL of methanol, 2 mL of water and 0.4 mL of 0.9% NaCl followed by a 5 min centrifugation at 800 x gravity. The resultant lower phase was collected and dried under a stream of N2 gas.
The analysis of neutral glycosphingolipids from mouse liver, kidney, and brain was processed after alkaline methanolysis. Kidney lipids were incubated with 2 mL of chloroform and 1 ml of 0.21 N NaOH in methanol for 2 h (kidney) or 7.5 h (liver and brain) at RT. […] GlcCer levels were quantified by comparison to known standards.

[4] = 24 hours exposure, glucosylceramide level

Row | IC50 [1] [µM] | IC50 (GCS in MDCKII cells; cell marked 'rac': value of the racemate, 24 hours) [µM] | Kp [2] | AUC [2] [ng·h/mL] | Brain drug AUC [2] [ng·h/g] | Plasma drug AUC [2] [ng·h/mL] | SMILES | CBE mouse GlcCer reduction in brain ([3]; dose 72 µmol/kg) [%] | CBE mouse GlcCer reduction in liver ([3]; dose 72 µmol/kg) [%] | IC50 (GCS in MDCKII cells; [4]) [µM] | CBE mouse GlcCer reduction in brain ([3]; dose 100 µmol/kg) [%] | CBE mouse GlcCer reduction in liver ([3]; dose 100 µmol/kg) [%]
1 | 0.077 | 0.0065 | 0.35 | 1120 | 398 | – | O=C(CC1Cc2ccccc2C1)N[C@H](CN1CCCC1)[C@H](O)c1ccc(OC(F)(F)F)cn1 [Example 21, 2-(2,3-dihydro-1H-inden-2-yl)-N-((1S,2R)-1-hydroxy-3-(pyrrolidin-1-yl)-1-(5-(trifluoromethoxy)pyridin-2-yl)propan-2-yl)acetamide] | – | – | – | – | –
2 | 0.0364 | – | 0.17 | 1040 | 173 | – | O=C(CC1Cc2ccccc2C1)N[C@H](CN1CCCC1)[C@H](O)c1cc(Cl)ccn1 [Example 25, N-((1S,2R)-1-(4-chloropyridin-2-yl)-1-hydroxy-3-(pyrrolidin-1-yl)propan-2-yl)-2-(2,3-dihydro-1H-inden-2-yl)acetamide] | 30 | 36 | – | – | –
3 | – | – | 0.72 | – | 1109 | – | O=C(CC1Cc2ccccc2C1)N[C@H](CN1CCCC1)[C@H](O)c1cccc(Cl)c1 [reference compound] | – | – | – | – | –

Further lines, the compound ahead of its results:

Row | SMILES | IC50 [1] [µM] | IC50 (GCS in MDCKII cells; cell marked 'rac': value of the racemate, 24 hours) [µM] | Kp [2] | AUC [2] [ng·h/mL] | Brain drug AUC [2] [ng·h/g] | Plasma drug AUC [2] [ng·h/mL] | CBE mouse GlcCer reduction in brain ([3]; dose 72 µmol/kg) [%] | CBE mouse GlcCer reduction in liver ([3]; dose 72 µmol/kg) [%] | IC50 (GCS in MDCKII cells; [4]) [µM] | CBE mouse GlcCer reduction in brain ([3]; dose 100 µmol/kg) [%] | CBE mouse GlcCer reduction in liver ([3]; dose 100 µmol/kg) [%]
4 | CC(C)(C)Oc1ccc([C@@H](O)[C@@H](CN2CCCC2)NC(=O)CC2Cc3ccccc3C2)cc1 [reference compound] | – | – | 0.58 | 1070 | 619 | – | – | – | – | – | –
5 | O=C(CC1Cc2ccccc2C1)N[C@H](CN1CCCC1)[C@H](O)c1ccc(OC(F)(F)F)cc1 [reference compound] | – | – | 0.8 | – | 1046 | 1308 | – | – | – | – | –
6 | CC(C)(C)Oc1ccc([C@@H](O)[C@@H](CN2CCCC2)NC(=O)CC2Cc3ccccc3C2)nc1 [Example 17, N-((1S,2R)-1-(5-(tert-butoxy)pyridin-2-yl)-1-hydroxy-3-(pyrrolidin-1-yl)propan-2-yl)-2-(2,3-dihydro-1H-inden-2-yl)acetamide] | 0.0113 | – | 0.34 | 902 | 308 | – | – | – | 0.0046 | 23 | 34
7 | COc1ccc([C@@H](O)[C@@H](CN2CCCC2)N(C)C(=O)CC2Cc3ccccc3C2)nc1 [Example 10] | 0.0374 | – | – | – | – | – | – | – | 0.0158 | – | –
